{
  "source": "patent US20110195979A1",
  "about": "“COMPOUNDS FOR THE TREATMENT AND PREVENTION OF INFLUENZA” (priority 2010, published 2011)",
  "key": {"[1]": {"system": "Influenza H1N1 virus", "experiment": "Viral cytopathic effect (CPE) assay", "format": "cell-based, Influenza A (H1N1)", "procedure": "Cells and viruses. Madin-Darby canine kidney cell (MDCK) was purchased from American type culture collection (ATCC) and was maintained in minimal essential medium (MEM) containing 10% fetal bovine serum and antibiotics. Influenza A/Weiss/43 (H1N1), A/PR/8/34 (H1N1), and A/Hongkong/8/68 (H3N2) were purchased from ATCC and propagated in 10-day-old embryonated chicken eggs at 37° C. Virus was harvested 48 h after inoculation as pooled allantoic fluid. After a brief centrifugation (3,000 rpm at room temperature for 20 min) and virus titer measurement by a hemagglutination test, virus was aliquoted and stored at a −80° C. freezer.\nViral cytopathic effect (CPE) assay: To measure anti-influenza activity of compounds, MDCK cells were seeded into 96-well plates at a density of 5,000 cells per well. Next day, compounds were serially half-log diluted with Gibco SFM containing trypsin. Compounds and 50 pfu of virus were added into corresponding wells to make m.o.i at 0.01 and a final trypsin concentration of 2.5 μg/ml. The testing plates also contained medium control, cell control, virus control, and compound toxicity control. After a 3-day treatment, cell viability was measured with a MTT (3-(4,5-dimethylthiazol-2-yl)-2,5-diphenyltetrazolium bromide) method. Briefly, 20 μl of MTT diluted in culture medium was added into each wells and incubated at 37° C. for 4 hours. Reduced MTT (formazan) was extracted with acidic isopropanol and absorbance at wavelengths of 570 nm and 630 nm (OD570 and OD630) was read on a microtiter plate reader. After subtraction of background OD values, dose response curves of half-log concentration vs. percent protection were generated, on which half maximal effective concentration (EC50) and half maximal toxic concentration (CC50) were calculated."}, "[2]": {"system": "MDCK cells", "experiment": "Cytotoxicity to MDCK cells (compound toxicity control, MTT)", "details": "for pIC50: read-out: Cytotoxicy IC50, half maximal cytotoxicity concentration to MDCK cells, MTT; for IC50 at 3 day: dog"}, "[3]": {"system": "MDCK cells", "details": "dog, 3 day"}, "[4]": {"system": "H3 viruses", "details": "cited from earlier work"}, "[5]": {"system": "H1 and H2 viruses", "details": "cited from earlier work"}, "[6]": {"system": "MDCK cells", "experiment": "in vitro", "details": "dog, Cytotoxicy IC50"}, "[7]": {"system": "H3 influenza viruses", "details": "cited from earlier work"}, "[8]": {"details": "H1N1; MDCK cells, m.o.i 0.01, 3-day treatment, MTT OD; mean of triplicate experiments; read-out: CPE_EC50"}, "[9]": {"details": "Influenza A virus, H1N1, MDCK, 72 h, read-out: CPE_EC50"}},
  "note": "pEC50, pIC50: −log10 of the molar value. Read-outs that look alike come from different tables or passages of the source.",
  "data": [
    {"molecule": "CC1(C)C[C@@H](O)C[C@@](C)(CNc2cc(Cl)cc(C#N)c2)C1", "note": "(relative stereo) [Example IIa-23, 3-Chloro-5-[((cis-1,5)-5-hydroxy-1,3,3-trimethyl-cyclohexylmethyl)-amino]-benzonitrile]", "values": [
      {"measurement": "pEC50", "setting": "[1]; [8]", "result": 7.47},
      {"measurement": "pIC50", "setting": "[2]", "result": 4.86}
    ]},
    {"molecule": "CC1(C)CC(O)CC(CNc2cc(F)cc(C(F)(F)F)c2)C1", "note": "(single isomer, unassigned) [Example IIi-1/2 Isomer 1, (cis-1,5)-5-[(3-Fluoro-5-trifluoromethyl-phenylamino)-methyl]-3,3-dimethyl-cyclohexanol]", "values": [
      {"measurement": "pEC50", "setting": "[1]; [9]", "result": "> 6.51"},
      {"measurement": "pIC50", "setting": "[3]", "result": 5.09}
    ]},
    {"molecule": "CC1(C)CC(O)CC(CNc2cc(F)cc(C(F)(F)F)c2)C1", "note": "(single isomer, unassigned) [Example IIi-1/2 Isomer 2, (trans-1,5)-5-[(3-fluoro-5-trifluoromethyl-phenylamino)-methyl]-3,3-dimethyl-cyclohexanol]", "values": [
      {"measurement": "pEC50", "setting": "[1]; read-out: CPE_EC50; H1N1; MDCK cells, m.o.i 0.01, 3-day treatment, MTT OD; mean of triplicate experiments", "result": "> 6.51"},
      {"measurement": "pIC50", "setting": "[3]", "result": 4.77}
    ]},
    {"molecule": "C[C@@H]1CCC[C@@H]2C[C@@H](NC(=O)c3cc(Cl)c(N)cc3O)CCN21", "note": "[BMY 27709]", "values": [
      {"measurement": "activity against H3 viruses", "setting": "[4]", "result": "not H3 viruses"},
      {"measurement": "pEC50", "setting": "[5]; read-out: anti-flu activity EC50", "result": "5.10 to 5.22"}
    ]},
    {"molecule": "CC1(C)CC(O)CC(C)(CNc2ccc(C#N)c(Cl)c2)C1", "note": "(stereo not drawn) [Example IIa-29, 2-Chloro-4-[((cis-1,5)-5-hydroxy-1,3,3-trimethyl-cyclohexylmethyl)-amino]-benzonitrile]", "values": [
      {"measurement": "pEC50", "setting": "[1]; [9]", "result": 6.74},
      {"measurement": "IC50 at 3 day", "setting": "[2]", "result": 8.22, "unit": "µM"}
    ]},
    {"molecule": "CC1(C)CC(O)CC(C)(CNc2ccc(Cl)c(C#N)c2)C1", "note": "(stereo not drawn) [Example IIa-30, 2-Chloro-5-[((cis-1,5)-5-hydroxy-1,3,3-trimethyl-cyclohexylmethyl)-amino]-benzonitrile]", "values": [
      {"measurement": "pEC50", "setting": "[1]; [9]", "result": 6.85},
      {"measurement": "IC50 at 3 day", "setting": "[2]", "result": 7.99, "unit": "µM"}
    ]},
    {"molecule": "CC1(C)CC(O)CC(C)(CNc2ccc(C#N)c(C(F)(F)F)c2)C1", "note": "(stereo not drawn) [Example IIa-33, 4-[((cis-1,5)-5-Hydroxy-1,3,3-trimethyl-cyclohexylmethyl)-amino]-2-trifluoromethyl-benzonitrile]", "values": [
      {"measurement": "pEC50", "setting": "[1]; [9]", "result": 7.31},
      {"measurement": "IC50 at 3 day", "setting": "[2]", "result": 8.35, "unit": "µM"}
    ]},
    {"molecule": "CC1(C)CC(O)CC(C)(C(=O)Nc2cc(F)cc(F)c2)C1", "note": "(stereo not drawn) [Example IVa-11, (cis-1,5)-5-Hydroxy-1,3,3-trimethyl-cyclohexanecarboxylic acid(3,5-difluoro-phenyl)-amide]", "values": [
      {"measurement": "pEC50", "setting": "[1]; [9]", "result": 6.49},
      {"measurement": "IC50 at 3 day", "setting": "[6]", "result": "> 100", "unit": "µM"}
    ]},
    {"molecule": "CC1(C)CC(O)CC(C)(C(=O)Nc2cc(F)cc(Cl)c2)C1", "note": "(stereo not drawn) [Example IVa-12, (cis-1,5)-5-Hydroxy-1,3,3-trimethyl-cyclohexanecarboxylic acid(3-chloro-5-fluoro-phenyl)amide]", "values": [
      {"measurement": "pEC50", "setting": "[1]; [9]", "result": 7.26},
      {"measurement": "IC50 at 3 day", "setting": "[6]", "result": 56.4, "unit": "µM"}
    ]},
    {"molecule": "CC1(C)CC(O)CC(C)(C(=O)Nc2cc(F)cc(C(F)(F)F)c2)C1", "note": "(stereo not drawn) [Example IVa-13, (cis-1,5)-5-Hydroxy-1,3,3-trimethyl-cyclohexanecarboxylic acid(3-fluoro-5-trifluoromethyl-phenyl)-amide]", "values": [
      {"measurement": "pEC50", "setting": "[1]; [9]", "result": 7.27},
      {"measurement": "IC50 at 3 day", "setting": "[6]", "result": 52.8, "unit": "µM"}
    ]},
    {"molecule": "CC1(C)CC(O)CC(C)(C(=O)Nc2cc(Cl)cc(C(F)(F)F)c2)C1", "note": "(stereo not drawn) [Example IVa-14, (cis-1,5)-5-Hydroxy-1,3,3-trimethyl-cyclohexanecarboxylic acid(3-chloro-5-trifluoromethyl-phenyl)-amide]", "values": [
      {"measurement": "pEC50", "setting": "[1]; [9]", "result": 7.72},
      {"measurement": "IC50 at 3 day", "setting": "[6]", "result": 22.2, "unit": "µM"}
    ]},
    {"molecule": "CC1(C)CC(O)CC(C)(C(=O)Nc2cc(Br)cc(C(F)(F)F)c2)C1", "note": "(stereo not drawn) [Example IVa-15, (cis-1,5)-5-Hydroxy-1,3,3-trimethyl-cyclohexanecarboxylic acid(3-bromo-5-trifluoromethyl-phenyl)-amide]", "values": [
      {"measurement": "pEC50", "setting": "[1]; [9]", "result": 7.26},
      {"measurement": "IC50 at 3 day", "setting": "[6]", "result": 7.31, "unit": "µM"}
    ]},
    {"molecule": "COc1cc(NC(=O)C2(C)CC(O)CC(C)(C)C2)cc(C(F)(F)F)c1", "note": "(stereo not drawn) [Example IVa-16, (cis-1,5)-5-Hydroxy-1,3,3-trimethyl-cyclohexanecarboxylic acid(3-methoxy-5-trifluoromethyl-phenyl)-amide]", "values": [
      {"measurement": "pEC50", "setting": "[1]; [9]", "result": 7.22},
      {"measurement": "IC50 at 3 day", "setting": "[6]", "result": 74.8, "unit": "µM"}
    ]},
    {"molecule": "CC1(C)CC(O)CC(C)(C(=O)Nc2cc(Cl)cc(Cl)c2)C1", "note": "(stereo not drawn) [Example IVa-17, (cis-1,5)-5-Hydroxy-1,3,3-trimethyl-cyclohexanecarboxylic acid(3,5-dichloro-phenyl)-amide]", "values": [
      {"measurement": "pEC50", "setting": "[1]; [9]", "result": 7.31},
      {"measurement": "IC50 at 3 day", "setting": "[6]", "result": 23.2, "unit": "µM"}
    ]},
    {"molecule": "CC1(C)CC(O)CC(C)(C(=O)Nc2ccc(Cl)c(F)c2)C1", "note": "(stereo not drawn) [Example IVa-19, (cis-1,5)-5-Hydroxy-1,3,3-trimethyl-cyclohexanecarboxylic acid(4-chloro-3-fluoro-phenyl)amide]", "values": [
      {"measurement": "pEC50", "setting": "[1]; [9]", "result": 5.74},
      {"measurement": "IC50 at 3 day", "setting": "[6]", "result": 30.9, "unit": "µM"}
    ]},
    {"molecule": "CC1(C)CC(O)CC(C)(C(=O)Nc2ccc(Cl)c(Cl)c2)C1", "note": "(stereo not drawn) [Example IVa-20, (cis-1,5)-5-Hydroxy-1,3,3-trimethyl-cyclohexanecarboxylic acid(3,4-dichloro-phenyl)-amide]", "values": [
      {"measurement": "pEC50", "setting": "[1]; [9]", "result": 6.20},
      {"measurement": "IC50 at 3 day", "setting": "[6]", "result": 9.63, "unit": "µM"}
    ]},
    {"molecule": "CC1(C)CC(O)CC(C)(C(=O)Nc2ccc(F)c(C(F)(F)F)c2)C1", "note": "(stereo not drawn) [Example IVa-21, (cis-1,5)-5-Hydroxy-1,3,3-trimethyl-cyclohexanecarboxylic acid(4-fluoro-3-trifluoromethyl-phenyl)-amide]", "values": [
      {"measurement": "pEC50", "setting": "[1]; [9]", "result": 6.34},
      {"measurement": "IC50 at 3 day", "setting": "[6]", "result": 29.6, "unit": "µM"}
    ]},
    {"molecule": "CC(=O)NC1CC(C)(C)CC(C)(C(=O)Nc2cccc(Cl)c2)C1", "note": "(stereo not drawn) [Example IVb-2, (cis-1,5)-5-Acetylamino-1,3,3-trimethyl-cyclohexanecarboxylic acid(3-chloro-phenyl)-amide]", "values": [
      {"measurement": "pEC50", "setting": "[1]; [9]", "result": 5.34},
      {"measurement": "IC50 at 3 day", "setting": "[6]", "result": "> 100", "unit": "µM"}
    ]},
    {"molecule": "CC(=O)N(C(C)=O)C1CC(C)(C)CC(C)(C(=O)Nc2cccc(Cl)c2)C1", "note": "(stereo not drawn) [Example IVb-3, (cis-1,5)-Diacetylamino-1,3,3-trimethyl-cyclohexanecarboxylic acid(3-chloro-phenyl)-amide]", "values": [
      {"measurement": "pEC50", "setting": "[1]; [9]", "result": 5.50},
      {"measurement": "IC50 at 3 day", "setting": "[6]", "result": 22.9, "unit": "µM"}
    ]},
    {"molecule": "CC1(C)CC(NS(C)(=O)=O)CC(C)(C(=O)Nc2cccc(Cl)c2)C1", "note": "(stereo not drawn) [Example IVb-4, (cis-1,5)-5-Methanesulfonylamino-1,3,3-trimethyl-cyclohexanecarboxylic acid(3-chloro-phenyl)-amide]", "values": [
      {"measurement": "pEC50", "setting": "[1]; [9]", "result": 5.56},
      {"measurement": "IC50 at 3 day", "setting": "[6]", "result": "> 100", "unit": "µM"}
    ]},
    {"molecule": "CC(C)(C)c1cc(O)ccc1O", "note": "[TBHQ, tert-butyl hydroquinone]", "values": [
      {"measurement": "inhibition of fusion", "setting": "[7]", "result": "inhibits fusion"}
    ]},
    {"molecule": "C[C@H]1CC[C@H]2C(C)(C)[C@@H](O)CC[C@]23Oc2c(c(O)cc4c2CNC4=O)C[C@]13C", "note": "[stachyflin]", "values": [
      {"measurement": "activity against H3 viruses", "setting": "[4]", "result": "not H3 viruses"},
      {"measurement": "block of influenza virus replication", "setting": "[5]", "result": "blocked"}
    ]},
    {"molecule": "(cis-1,5)-5-Hydroxy-1,3,3-trimethyl-cyclohexanecarboxylic acid(4-chloro-3-trifluoromethyl-phenyl)-amide [Example IVa-22]", "values": [
      {"measurement": "pEC50", "setting": "[1]; [8]", "result": 6.78},
      {"measurement": "pIC50", "setting": "[2]", "result": 5.13}
    ]}
  ]
}
